Measured values published in ChEMBL document CHEMBL1150330, “Muscarinic antagonists with multiple stereocenters: Synthesis, affinity profile and functional activity of isomeric 1-methyl-2-(2,2-alkylaryl-1,3-oxathiolan-5-yl)pyrrolidine sulfoxide derivatives” (Bioorg Med Chem, 2008).
Values belong to the compound of their own block, whether it stands above or below them.

Legend:
[1] = molecular target: T1, Muscarinic acetylcholine receptor M2 (Homo sapiens, UniProt P08172); experiment: Displacement of [3H]NMS from human muscarinic M2 receptor expressed in CHO cells; assay type: cell-based
T1 sequence (P08172 whole entry): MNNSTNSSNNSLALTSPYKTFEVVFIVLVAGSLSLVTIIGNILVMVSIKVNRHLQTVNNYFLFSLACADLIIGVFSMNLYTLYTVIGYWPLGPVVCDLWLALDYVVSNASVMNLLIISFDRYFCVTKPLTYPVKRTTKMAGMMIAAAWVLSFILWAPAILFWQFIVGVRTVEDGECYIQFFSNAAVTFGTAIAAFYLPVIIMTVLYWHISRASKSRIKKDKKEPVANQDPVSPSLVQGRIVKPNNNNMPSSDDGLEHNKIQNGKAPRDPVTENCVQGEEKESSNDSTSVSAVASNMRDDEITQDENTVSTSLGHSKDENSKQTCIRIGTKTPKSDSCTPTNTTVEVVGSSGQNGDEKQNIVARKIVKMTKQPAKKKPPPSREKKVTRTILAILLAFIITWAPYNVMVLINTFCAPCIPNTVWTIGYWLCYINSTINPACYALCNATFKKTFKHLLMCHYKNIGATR

[2] = Antagonist activity against muscarinic M4 receptor in guinea pig lung strip assessed as effect on electrically-stimulated contraction; assay type: functional, Cavia porcellus
[3] = molecular target: T2, Muscarinic acetylcholine receptor M5 (Homo sapiens, UniProt P08912); experiment: Displacement of [3H]NMS from human muscarinic M5 receptor expressed in CHO cells; assay type: cell-based
T2 sequence (P08912 whole entry): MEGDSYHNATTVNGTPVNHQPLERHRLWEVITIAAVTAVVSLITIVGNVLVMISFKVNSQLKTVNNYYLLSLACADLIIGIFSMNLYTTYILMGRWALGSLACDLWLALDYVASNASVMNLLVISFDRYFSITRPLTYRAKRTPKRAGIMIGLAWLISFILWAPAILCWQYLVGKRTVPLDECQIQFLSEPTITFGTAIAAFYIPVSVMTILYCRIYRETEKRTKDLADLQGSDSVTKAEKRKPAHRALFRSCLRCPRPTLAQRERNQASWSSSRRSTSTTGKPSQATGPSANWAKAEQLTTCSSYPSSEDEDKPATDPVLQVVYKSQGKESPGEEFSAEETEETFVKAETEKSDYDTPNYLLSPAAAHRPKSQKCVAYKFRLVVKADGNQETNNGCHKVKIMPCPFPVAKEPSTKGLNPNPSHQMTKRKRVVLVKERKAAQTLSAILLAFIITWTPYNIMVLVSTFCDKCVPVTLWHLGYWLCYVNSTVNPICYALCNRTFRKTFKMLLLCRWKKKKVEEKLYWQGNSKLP

[4] = Antagonist activity against muscarinic M3 receptor in guinea pig ileum assessed as effect on ileum tension; assay type: functional, Cavia porcellus
[5] = Antagonist activity against muscarinic M2 receptor in guinea pig atria assessed as effect on electrically-stimulated atria; assay type: functional, Cavia porcellus
[6] = molecular target: T3, Muscarinic acetylcholine receptor M4 (Homo sapiens, UniProt P08173); experiment: Displacement of [3H]NMS from human muscarinic M4 receptor expressed in CHO cells; assay type: cell-based
T3 sequence (P08173 whole entry): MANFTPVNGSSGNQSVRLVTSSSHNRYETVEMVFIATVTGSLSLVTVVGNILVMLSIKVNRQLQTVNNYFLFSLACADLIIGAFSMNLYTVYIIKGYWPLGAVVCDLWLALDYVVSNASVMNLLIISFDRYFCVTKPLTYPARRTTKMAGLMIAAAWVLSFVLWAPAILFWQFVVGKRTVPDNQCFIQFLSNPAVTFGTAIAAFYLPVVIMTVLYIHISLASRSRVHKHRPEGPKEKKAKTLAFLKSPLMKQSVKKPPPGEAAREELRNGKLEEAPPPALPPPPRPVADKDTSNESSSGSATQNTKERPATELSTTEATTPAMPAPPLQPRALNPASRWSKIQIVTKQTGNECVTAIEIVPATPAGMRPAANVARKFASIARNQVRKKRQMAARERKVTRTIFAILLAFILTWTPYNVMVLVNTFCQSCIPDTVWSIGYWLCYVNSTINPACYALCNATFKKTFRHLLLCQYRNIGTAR

[7] = molecular target: T4, Muscarinic acetylcholine receptor M1 (Homo sapiens, UniProt P11229); experiment: Displacement of [3H]NMS from human muscarinic M1 receptor expressed in CHO cells; assay type: cell-based
T4 sequence (P11229 whole entry): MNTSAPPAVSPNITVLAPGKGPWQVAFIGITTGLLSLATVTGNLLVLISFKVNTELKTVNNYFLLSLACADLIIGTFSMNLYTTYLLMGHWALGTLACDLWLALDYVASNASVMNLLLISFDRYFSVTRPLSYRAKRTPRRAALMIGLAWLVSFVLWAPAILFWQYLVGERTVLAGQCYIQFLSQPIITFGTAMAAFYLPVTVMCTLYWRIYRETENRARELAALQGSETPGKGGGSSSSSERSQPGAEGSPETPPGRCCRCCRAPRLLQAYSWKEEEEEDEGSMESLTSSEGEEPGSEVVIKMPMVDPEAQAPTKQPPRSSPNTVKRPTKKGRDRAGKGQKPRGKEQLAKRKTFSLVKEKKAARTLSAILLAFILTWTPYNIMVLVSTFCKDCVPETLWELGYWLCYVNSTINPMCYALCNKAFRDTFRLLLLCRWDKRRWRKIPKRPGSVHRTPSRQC

[8] = molecular target: Muscarinic acetylcholine receptor M3 (Homo sapiens, UniProt P20309); experiment: Displacement of [3H]NMS from human muscarinic M3 receptor expressed in CHO cells; assay type: cell-based
Muscarinic acetylcholine receptor M3, sequence (P20309 whole entry): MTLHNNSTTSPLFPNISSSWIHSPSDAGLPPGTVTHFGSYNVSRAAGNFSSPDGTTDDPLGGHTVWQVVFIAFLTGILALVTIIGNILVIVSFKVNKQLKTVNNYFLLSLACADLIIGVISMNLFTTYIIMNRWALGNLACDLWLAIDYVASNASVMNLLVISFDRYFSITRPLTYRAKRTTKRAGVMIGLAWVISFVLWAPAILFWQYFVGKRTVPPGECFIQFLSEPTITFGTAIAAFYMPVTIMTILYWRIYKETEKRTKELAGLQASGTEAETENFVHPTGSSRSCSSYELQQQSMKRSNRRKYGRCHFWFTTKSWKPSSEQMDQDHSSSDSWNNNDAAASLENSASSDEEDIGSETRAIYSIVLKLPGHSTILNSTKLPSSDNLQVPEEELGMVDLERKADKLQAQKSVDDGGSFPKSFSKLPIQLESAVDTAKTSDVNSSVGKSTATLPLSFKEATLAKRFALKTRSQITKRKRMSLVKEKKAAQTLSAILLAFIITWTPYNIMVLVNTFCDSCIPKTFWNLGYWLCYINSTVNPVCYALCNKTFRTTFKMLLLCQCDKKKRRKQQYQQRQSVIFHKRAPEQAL

Compound: C[N+]1(C)CCC[C@@H]1[C@@H]1C[S+]([O-])[C@](c2ccccc2)(C2CCCCC2)O1.[I-] (stereo in doubt; (-)-12)
- Ki [1]: 85.1 nM
- pKb [2]: 7.45
- Ki [3]: 195 nM
- pKb [4]: 7.11
- pKb [5]: 7.91
- Ki [6]: 316 nM
- Ki [7]: 56.2 nM
- Ki [8]: 288 nM

Compound: C[N+]1(C)CCC[C@@H]1[C@@H]1C[S+]([O-])[C@](c2ccccc2)(C2CCCCC2)O1.[I-] (stereo in doubt; (-)-13)
- Ki [1]: 95.5 nM
- pKb [2]: 6.06
- Ki [3]: 302 nM
- pKb [4]: 7.22
- pKb [5]: 7.51
- Ki [6]: 468 nM
- Ki [7]: 117 nM
- Ki [8]: 324 nM

Compound: C[N+]1(C)CCC[C@H]1[C@H]1C[S+]([O-])[C@](c2ccccc2)(C2CCCCC2)O1.[I-] (stereo in doubt; (-)-14)
- Ki [1]: 550 nM
- pKb [2]: 5.24
- Ki [3]: 331 nM
- pKb [4]: 6.68
- pKb [5]: 6.03
- Ki [6]: 603 nM
- Ki [7]: 155 nM
- Ki [8]: 324 nM

Now from value to compound, other results behind:

- Ki [1]: 41.7 nM
- Ki [3]: 30.2 nM
- Ki [6]: 105 nM
- Ki [7]: 15.8 nM
- Ki [8]: 51.3 nM
Compound: C[N+]1(C)CCC[C@H]1[C@H]1C[S+]([O-])C(c2ccccc2)(c2ccccc2)O1.[I-] (stereo in doubt; (-)-11)
- pKb [2]: <5
- pKb [4]: 7.89
- pKb [5]: 6.93

- Ki [1]: 57.5 nM
- Ki [3]: 41.7 nM
- Ki [6]: 112 nM
- Ki [7]: 19.5 nM
- Ki [8]: 77.6 nM
Compound: C[N+]1(C)CCC[C@H]1[C@H]1C[S+]([O-])[C@](c2ccccc2)(C2CCCCC2)O1.[I-] (stereo in doubt; (-)-15)
- pKb [2]: 5.64
- pKb [4]: 7.9
- pKb [5]: 6.92
